Measurements: patent publication US6825185B2, “Substituted aryl compounds as novel cyclooxygenase-2 selective inhibitors, compositions and methods of use” (NitroMed, Inc., priority 2000, dated 2004)

What was measured:
COX-1 [1] = molecular target: T1, COX-1 (Homo sapiens, UniProt P23219); experiment: Human COX-1 enzyme activity (COX Inhibitor Screening Assay, prostaglandin EIA); type: biochemical; parameters: purchased Cayman Chemical; settings: test compound at 100 μM
Description: The human COX-1 and COX-2 enzyme activities and the measurement of the prostaglandin products synthesized were performed using the COX Inhibitor Screening Assay (Cayman Chemical, Ann Arbor, Mich.), which also contained the Prostaglandin Screening EIA Kit, used for prostaglandin quantification). The test compounds were dissolved at 50 times the highest final reaction concentration in DMSO or any other suitable solvent as stock solutions. These stock solutions were then diluted in the same solvent. Eight glass test tubes (13×100 mm) were placed in a 25° C. water bath. To each test tube was added 950 μL of reaction buffer (0.1 M Tris-HCl, pH 8.0, containing 5 mM EDTA, and 2 mM phenol), 10 μL of 100 µM heme solution, and 10 μL (5 units) of either human COX-1 or COX-2 enzyme and the resulting mixture was incubated for 2 minutes. Twenty μL of the solvent was added to one tube (100% initial activity or solvent control) and 20 μL of each dilution of the test compound was added to one tube each. Each tube was vortexed immediately after the addition. The enzyme was incubated with the inhibitor for 20 minutes at 25° C. The enzymatic reaction was then initiated by the addition of 10 μL of freshly prepared 10 mM arachidonic acid (neutralized with KOH), vortexed and then incubated for 2 minutes (or, in some cases as indicated, 30 seconds) at 37° C. The reaction was terminated by the addition of 50 μL of 1 M HCl, vortexed and placed at room temperature. One hundred μL of a saturated stannous chloride solution (50 mg/mL of 0.1 M HCl) was added and the reaction mixture was allowed to stand at room temperature for at least 5 minutes.
The prostaglandins (PG) produced in the reactions were assayed, after a 2,000-fold dilution, using the Prostaglandin Screening EIA Kit (Cayman Chemical, Ann Arbor, Mich.). The assay contains an antibody with broad specificity for all the prostaglandin families (PGF, PGE, PGD, and thromboxane B-type) synthesized in the COX-1/COX-2 reactions. The synthesized prostaglandin competes with a PG-tagged acetylcholine esterase tracer for binding to the PG antibody. Binding of synthesized PG lowers the colorimetric development of the Ellman's Reagent (computed as %B/B0). The actual amount of synthesized PG was interpolated from a standard curve using known amounts of supplied prostaglandin E2 (PGE2) (PGE2 concentration vs. %B/B0). The data generated were the mean±standard deviation of triplicate wells in the EIA for a single reaction at a given inhibitor concentration. A plot of % of control (i.e., the solvent control without inhibitor) vs. test compound inhibitor concentration for both isoenzymes was used to determine the IC50 's for COX-1 and COX-2 for that test compound, when IC50's were calculated. The % inhibition for COX-1 and COX-2 enzyme activity by the test compounds at the indicated concentrations are given in Table 1.

COX-1 [2] = molecular target: T1, COX-1; experiment: COX-1 enzyme activity in human whole blood (A23187 stimulated, thromboxane B2 EIA); type: cell-based; parameters: Human blood (≈50 mL) from male or female donors who had not received any aspirin or NSAIDs for 14 days; endogenous in cells; host or cells: human whole blood from donors
Description: (§1) The assay for COX-1 and COX-2 enzyme activity, in the human whole blood was performed as described in Brideau et al., Inflamm Res., 45: 68-74 (1996)). Human blood (≈50 mL) from male or female donors who had not received any aspirin or NSAIDs for 14 days was collected at two local area blood donor centers and placed in polypropylene syringes containing sodium heparin (20 units per mL blood, final concentration). The blood was transported to the laboratory on ice packs and used within 1.5 hours of collection. Upon receipt in the laboratory, the blood was allowed to come to room temperature for 15 minutes prior to distribution in 1 mL aliquots per well of 24 well tissue culture plates. The plates were then placed on a gently rotating platform shaker in a 5% CO2 incubator at 37° C. for 15 minutes. Test compounds were dissolved in DMSO, at 1000 fold the final desired concentration, and further diluted, as indicated, in DMSO. One μL of each dilution of the test compound was added per well, in duplicate wells; wells not receiving test compound (e.g., basal, background or control wells) received 1 μL DMSO.
(§2) To induce COX-2, lipopolysaccharide (LPS) from E. coli (LPS, serotype 026:B6 or serotype 0127:B8, Sigma Chemical Co., St. Louis, Mo., Catalogue No. L3755 or L3129, respectively) was added at 10 μg/mL (2 μL of 5 mg/mL LPS in DMSO) to appropriate wells 15 minutes after the addition of the test compound. (Basal or background wells not incubated with LPS received 2 μL of DMSO.) For the stimulation of COX-1, the calcium ionophore, A23187 (free acid from Sigma Chemical Co., St. Louis, Mo., Catalogue No. C7522) was added at 25 μM (1 μL of 25 mM stock in DMSO) to separate wells 4.5 hours after the addition of the test compound. (Again, basal, background or control wells not stimulated with A23187 received 1 μL of DMSO.) At 5 hours after the addition of the test compound, all incubations were terminated by placement on ice and the addition of 2 mM EGTA (100 μL of 20 mM EGTA, tetrasodium, in PBS (phosphate buffered saline) without Ca^++ and Mg^++, pH 7.2)). The resulting solutions, were transferred by polyethylene transfer pipettes to 15 mL polypropylene centrifuge tubes and centrifuged at 1200 g for 10 minutes at 4° C. One hundred μL of plasma was removed from each blood sample and added to 1 mL of methanol in new 15 mL polypropylene centrifuge tubes, vortexed, and stored overnight at −20° C. The next day, the samples were centrifuged at 2000 g for 10 minutes at 4° C. and the supernatants transferred to glass tubes and evaporated to dryness. The samples were assayed for thromboxane B2 using EIA kits supplied by Cayman Chemical Co. (Ann Arbor, Mich., Catalogue No. 519031) in duplicate wells after reconstitution with EIA Buffer and appropriate dilution (2000 fold for COX-1 and 500 fold for Cox-2 samples).

COX-2 = molecular target: T2, COX-2 (Homo sapiens, UniProt P35354); experiment: COX-2 enzyme activity in human whole blood (LPS induced, thromboxane B2 EIA); type: cell-based; parameters: Human blood (≈50 mL) from male or female donors who had not received any aspirin or NSAIDs for 14 days; endogenous in cells; host or cells: human whole blood from donors, LPS-induced; settings: test compound at 10 μM
T2 sequence (P35354 18-604): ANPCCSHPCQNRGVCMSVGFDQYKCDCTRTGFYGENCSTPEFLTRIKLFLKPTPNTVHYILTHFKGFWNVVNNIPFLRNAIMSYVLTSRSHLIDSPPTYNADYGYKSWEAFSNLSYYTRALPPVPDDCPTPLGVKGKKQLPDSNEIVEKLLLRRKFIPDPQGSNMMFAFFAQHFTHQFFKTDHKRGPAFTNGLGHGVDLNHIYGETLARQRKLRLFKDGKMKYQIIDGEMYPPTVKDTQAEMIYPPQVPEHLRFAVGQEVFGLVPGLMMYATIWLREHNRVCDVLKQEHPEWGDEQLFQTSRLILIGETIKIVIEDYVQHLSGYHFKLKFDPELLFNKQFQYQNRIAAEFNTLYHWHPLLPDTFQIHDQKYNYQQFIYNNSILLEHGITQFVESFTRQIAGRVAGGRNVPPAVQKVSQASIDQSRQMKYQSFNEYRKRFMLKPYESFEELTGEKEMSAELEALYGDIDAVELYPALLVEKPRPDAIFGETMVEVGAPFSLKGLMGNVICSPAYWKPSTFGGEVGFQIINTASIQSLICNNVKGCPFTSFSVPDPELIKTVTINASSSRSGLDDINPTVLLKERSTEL
Description: as §1, with “Human” for “The assay for COX-1 and COX-2 enzyme activity, in the human whole blood was performed as described in Brideau et al., Inflamm Res., 45: 68-74 (1996)). Human”
as §2, with “(Basal or background wells not incubated with LPS received 2 μL of DMSO.) For the stimulation of COX-1, the calcium ionophore, A23187 (free acid from Sigma Chemical Co., St. Louis, Mo., Catalogue No. C7522) was added at 25 μM (1 μL of 25 mM stock in DMSO) to separate wells 4.5 hours after the addition of the test compound.” left out, “dryness.” for “dryness. The samples were assayed for thromboxane B2 using EIA kits supplied by Cayman Chemical Co. (Ann Arbor, Mich., Catalogue No. 519031) in duplicate wells after reconstitution with EIA Buffer and appropriate dilution (2000 fold for COX-1 and 500 fold for Cox-2 samples).”

T1 sequence (P23219 24-599): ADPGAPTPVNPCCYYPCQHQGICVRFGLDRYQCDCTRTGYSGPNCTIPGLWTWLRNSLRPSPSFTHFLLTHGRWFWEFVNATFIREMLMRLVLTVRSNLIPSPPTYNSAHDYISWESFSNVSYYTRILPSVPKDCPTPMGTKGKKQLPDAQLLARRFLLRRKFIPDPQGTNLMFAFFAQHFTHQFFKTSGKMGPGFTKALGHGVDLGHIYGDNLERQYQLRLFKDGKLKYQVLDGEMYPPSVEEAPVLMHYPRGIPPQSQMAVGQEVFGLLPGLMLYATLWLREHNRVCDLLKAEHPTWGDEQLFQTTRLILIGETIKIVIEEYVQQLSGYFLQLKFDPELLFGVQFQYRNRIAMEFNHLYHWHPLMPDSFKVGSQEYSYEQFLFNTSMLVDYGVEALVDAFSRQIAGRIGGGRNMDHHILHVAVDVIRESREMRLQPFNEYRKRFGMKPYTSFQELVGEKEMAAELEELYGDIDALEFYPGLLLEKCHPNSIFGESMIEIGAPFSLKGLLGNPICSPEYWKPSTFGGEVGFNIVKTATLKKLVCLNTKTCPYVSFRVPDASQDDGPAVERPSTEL

## CS(=O)(=O)c1ccc(-c2cc3c(cc2C=C2CCCCC2)OCO3)cc1 [Example 1d, 1-(6-(Cyclohexylidenemethyl)(2-H-benzo(3,4-d) 1,3-dioxolen-5-yl))-4-(methylsulfonyl)benzene]
COX-1 [1]
  COX-1 Inhibition (% at 100 μM): 5%
COX-1 [2]; test compound at 100 μM
  COX-1 Inhibition (% at 100 μM): 50%

## CS(=O)(=O)c1ccc(-c2cc(O)c(O)cc2Cc2cc(F)cc(F)c2)cc1 [Example 17e, 5-(1-(3′,5′-Difluorophenyl)methyl)-1,2-dihydroxy-4-(4-methylsulfonylphenyl)benzene]
COX-1 [2]; test compound at 100 μM
  COX-1 Inhibition (% at 100 μM): 35%
COX-2
  COX-2 Inhibition (% at 10 μM): 25%

## CS(=O)(=O)c1ccc(-c2cc3c(cc2Cc2cc(F)cc(F)c2)OCC(C(=O)NCCO)O3)cc1 (centres unmarked) [Example 18c, (6-((3,5-Difluorophenyl)methyl)-7-(4-(methylsulfonyl)phenyl)(2H, 3H-benzo(e)1,4-dioxin-2-yl))-N-(2-hydroxyethyl)carboxamide]
COX-1 [2]; test compound at 100 μM
  inhibition at 100 µM: 90%
COX-2
  inhibition at 10 µM: 40%

## CS(=O)(=O)c1ccc(-c2cc3c(cc2C(=O)C2CCCCC2)OCO3)cc1 [Example 2c, Cyclohexyl 6-(4-(methylsulfonyl)phenyl)(2H-benzo(d)1,3-dioxolan-5-yl) ketone]
COX-1 [2]; test compound at 30 μM
  COX-1 Inhibition (% at 30 μM): 70 (at 30 μM) %
COX-2
  COX-2 Inhibition (% at 10 μM): 85%

## Cc1ccc(F)c(C(=O)c2cc3c(cc2-c2ccc(S(C)(=O)=O)cc2)OCO3)c1 [Example 14c, 2-Fluoro-5-methylphenyl6-(4-(methylsulfonyl)phenyl)(2H-benzo(d)1,3-dioxolan-5-yl)ketone]
COX-1 [2]; test compound at 100 μM
  COX-1 Inhibition (% at 100 μM): 90%
COX-2
  COX-2 Inhibition (% at 10 μM): 75%

## CS(=O)(=O)c1ccc(-c2cc3c(cc2C(=O)c2ccccc2F)OCO3)cc1 [Example 4d, 2-Fluorophenyl 6-(4-(methylsulfonyl)phenyl)(2H-benzo(d)1,3-dioxolan-5-yl) ketone]
COX-1 [2]; test compound at 100 μM
  COX-1 Inhibition (% at 100 μM): 70%
COX-2
  COX-2 Inhibition (% at 10 μM): 90%

## 1-(7-((3,5-Difluorophenyl)methyl)-2-(hydroxymethyl)(2H, 3H-benzo(3,4-e)1,4-dioxin-6-yl))-4-(methylsulfonyl)benzene and 1-(7-((3,5-difluorophenyl)methyl)-3-(hydroxymethyl)(2H, 3H-benzo(e)1,4-dioxin-6-yl))-4-(methylsulfonyl)benzene [Example 19a]
COX-1 [2]; test compound at 100 μM
  COX-1 Inhibition (% at 100 μM): 45%
COX-2
  COX-2 Inhibition (% at 10 μM): 15%

## CS(=O)(=O)c1ccc(-c2cc3c(cc2Cc2ccccc2)OCO3)cc1 [Example 3c, 4-(Methylsulfonyl)-1-(6-benzyl(2H-benzo(3,4-d)1,3-dioxolan-5-yl))benzene]
COX-1 [2]; test compound at 100 μM
  COX-1 Inhibition (% at 100 μM): 65%
COX-2
  COX-2 Inhibition (% at 10 μM): 50%

## CS(=O)(=O)c1ccc(-c2cc3c(cc2C(=O)c2cccc(F)c2)OCO3)cc1 [Example 5d, 3-Fluorophenyl 6-(4-(methylsulfonyl)phenyl)(2H-benzo(d)1,3-dioxolan-5-yl) ketone]
COX-1 [2]; test compound at 100 μM
  COX-1 Inhibition (% at 100 μM): 70%
COX-2
  COX-2 Inhibition (% at 10 μM): 95%

## 1-(7-((3,5-Difluorophenyl)methyl)-2-((nitrooxy)methyl)(2H, 3H-benzo(3,4-e)1, 4-dioxin-6-yl))-4-(methylsulfonyl)benzene and 1-(7-((3,5-difluorophenyl)methyl)-3-((nitrooxy)methyl)(2H, 3H-benzo(e)1,4-dioxin-6-yl))-4-(methylsulfonyl)benzene [Example 19b]
COX-1 [2]; test compound at 100 μM
  COX-1 Inhibition (% at 100 μM): 65%
COX-2
  COX-2 Inhibition (% at 10 μM): 35%
